Results taken from patent publication US10385022B2, “3-amino-pyridines as GPBAR1 agonists” (HOFFMANN-LA ROCHE INC., priority 2011, dated 2019).
pEC50: −log10 of the molar value. Where a name gives a salt, the structure may show the parent alone.

The molecules below were run against human GPBAR1 receptor (Homo sapiens (Human), UniProt Q8TDU6) (assay: functional cAMP assay in CHO-dhfr(minus) cells expressing human GPBAR1 receptors). Settings: CHO-dhfr(minus) cells expressing human GPBAR1, 30 min at 30° C.
Chain of human GPBAR1 receptor (Q8TDU6 whole entry): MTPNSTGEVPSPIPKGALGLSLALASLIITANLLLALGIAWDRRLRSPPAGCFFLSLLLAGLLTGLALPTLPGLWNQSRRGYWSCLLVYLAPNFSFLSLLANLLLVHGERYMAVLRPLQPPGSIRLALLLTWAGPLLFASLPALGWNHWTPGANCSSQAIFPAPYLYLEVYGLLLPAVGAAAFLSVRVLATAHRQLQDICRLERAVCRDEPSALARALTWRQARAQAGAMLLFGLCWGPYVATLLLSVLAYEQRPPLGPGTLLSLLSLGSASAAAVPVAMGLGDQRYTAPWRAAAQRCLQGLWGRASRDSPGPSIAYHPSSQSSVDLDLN
Format: cell-based
Procedure: The final clone was verified by DNA sequence analysis. The plasmid was transfected into CHO cells deficient in dihydrofolate reductase activity (CHO-dhfr-) using Lipofectamine plus (Invitrogen). Clones were isolated in limited dilution conditions and identified by activities in the cAMP assay using lithocholic acid as agonist.
EC50 values were determined using Activity Base analysis (ID Business Solution, Limited). […] Specificity for GPBAR1 was tested in non-transfected CHO cells in the same assay as above.
`COc1cc(F)ccc1-c1ccncc1N(CC(F)(F)F)C(=O)c1cc(C(F)(F)F)nc(C(F)(F)F)c1` [Example 147, N-[4-(4-Fluoro-2-methoxy-phenyl)-pyridin-3-yl]-N-(2,2,2-trifluoro-ethyl)-2,6-bis-trifluoromethyl-isonicotinamide] gave a pEC50 of 7.74. `COc1ccc(F)cc1-c1ccncc1N(CC(N)=O)C(=O)c1cc(C(F)(F)F)cc(S(C)(=O)=O)c1` [Example 309, N-Carbamoylmethyl-N-[4-(5-fluoro-2-methoxy-phenyl)-pyridin-3-yl]-3-methanesulfonyl-5-trifluoromethyl-benzamide] showed a pEC50 of 6.56. `Cc1ccc(Cl)cc1-c1ccncc1N(C)C(=O)c1cc(C(F)(F)F)cc(C(F)(F)F)c1` [Example 82, N-[4-(5-Chloro-2-methyl-phenyl)-pyridin-3-yl]-N-methyl-3,5-bis-trifluoromethyl-benzamide] showed a pEC50 of 6.63. `Cc1cn[nH]c1-c1ccncc1N(C)C(=O)c1cc(C(F)(F)F)cc(C(F)(F)F)c1` [Example 211, N-Methyl-N-[4-(4-methyl-2H-pyrazol-3-yl)-pyridin-3-yl]-3,5-bis-trifluoromethyl-benzamide] was tested, and the pEC50 was 6.02. `Cc1ccc(C(=O)O)cc1-c1ccncc1N(C)C(=O)c1cc(C(F)(F)F)cc(C(F)(F)F)c1` [Example 84, 3-{3-[(3,5-Bis-trifluoromethyl-benzoyl)-methyl-amino]-pyridin-4-yl}-4-methyl-benzoic acid] gave a pEC50 of 5.70. `CS(=O)(=O)CCN(C(=O)c1cc(C(F)(F)F)cc(C(F)(F)F)c1)c1cnccc1-c1ccccc1Cl` [Example 112, N-[4-(2-Chloro-phenyl)-pyridin-3-yl]-N-(2-methanesulfonyl-ethyl)-3,5-bis-trifluoromethyl-benzamide] gave a pEC50 of 6.63. Molecule `COc1cc(F)c(F)cc1-c1ccncc1N(CC(N)=O)C(=O)c1cc(C(F)(F)F)nc(C(F)(F)F)c1` [Example 174, N-(2-Amino-2-oxoethyl)-N-(4-(4,5-difluoro-2-methoxyphenyl)pyridin-3-yl)-2,6-bis(trifluoromethyl)isonicotinamide] has a pEC50 of 7.27. Work on `COc1cc(F)ccc1-c1ccncc1N(CCS(C)(=O)=O)C(=O)c1cc(C(F)(F)F)nc(C(F)(F)F)c1` [Example 162, N-[4-(4-Fluoro-2-methoxy-phenyl)-pyridin-3-yl]-N-(2-methanesulfonyl-ethyl)-2,6-bis-trifluoromethyl-isonicotinamide] yielded a pEC50 of 7.00. For `COc1ccccc1-c1ccncc1N(C)C(=O)c1cc(C(F)(F)F)cc(S(C)(=O)=O)c1` [Example 263, 3-Methanesulfonyl-N-[4-(2-methoxy-phenyl)-pyridin-3-yl]-N-methyl-5-trifluoromethyl-benzamide], the pEC50 was 7.77. `Cc1ccccc1-c1ccncc1N(C)C(=O)c1cc(N2CCOCC2)cc(C(F)(F)F)c1` [Example 152, N-Methyl-3-morpholin-4-yl-N-(4-o-tolyl-pyridin-3-yl)-5-trifluoromethyl-benzamide] showed a pEC50 of 6.25. `COc1cc(F)ccc1-c1ccncc1N(CC(F)F)C(=O)c1cc(C(F)(F)F)nc(C(F)(F)F)c1` [Example 153, N-(2,2-Difluoro-ethyl)-N-[4-(4-fluoro-2-methoxy-phenyl)-pyridin-3-yl]-2,6-bis-trifluoromethyl-isonicotinamide] was tested, and the pEC50 was 7.72. `CN(C(=O)c1cc(C(F)(F)F)cc(S(C)(=O)=O)c1)c1cnccc1-c1ccccc1OC1CC1` [Example 242, N-[4-(2-Cyclopropoxy-phenyl)-pyridin-3-yl]-3-methanesulfonyl-N-methyl-5-trifluoromethyl-benzamide] gave a pEC50 of 7.96. With `CN(C(=O)c1cc(C(F)(F)F)cc(C(F)(F)F)c1)c1cnccc1-c1ccccc1C#N` [Example 36, N-[4-(2-Cyano-phenyl)-pyridin-3-yl]-N-methyl-3,5-bis-trifluoromethyl-benzamide] the pEC50 was 6.44. For `CS(=O)(=O)c1cc(C(=O)N(CCO)c2cnccc2-c2ccccc2F)cc(C(F)(F)F)c1` [Example 244, N-[4-(2-Fluoro-phenyl)-pyridin-3-yl]-N-(2-hydroxy-ethyl)-3-methanesulfonyl-5-trifluoromethyl-benzamide], the pEC50 was 5.94. `COc1ncccc1-c1ccncc1N(CC(F)(F)F)C(=O)c1cc(C(F)(F)F)cc(C(F)(F)F)c1` [Example 135, N-(2-Methoxy-[3,4′]bipyridinyl-3′-yl)-N-(2,2,2-trifluoro-ethyl)-3,5-bis-trifluoromethyl-benzamide] showed a pEC50 of 7.04. `COc1cc(F)ccc1-c1ccncc1N(C)C(=O)c1cc(SCCCC(=O)O)cc(C(F)(F)F)c1` [Example 239, 4-(3-{[4-(4-Fluoro-2-methoxy-phenyl)-pyridin-3-yl]-methyl-carbamoyl}-5-trifluoromethyl-phenylsulfanyl)-butyric acid] showed a pEC50 of 6.29. With `CN(C(=O)c1cc(C(F)(F)F)cc(C(F)(F)F)c1)c1cnccc1-c1cc(F)cnc1Cl` [Example 55, N-(2-Chloro-5-fluoro-[3,4′]bipyridinyl-3′-yl)-N-methyl-3,5-bis-trifluoromethyl-benzamide] the pEC50 was 6.36. Work on `Cc1ncccc1-c1ccncc1N(C)C(=O)c1cc(C(F)(F)F)cc(C(F)(F)F)c1` [Example 33, N-Methyl-N-(2-methyl-[3,4′]bipyridinyl-3′-yl)-3,5-bis-trifluoromethyl-benzamide] yielded a pEC50 of 6.46. Work on `CC1CCCCN1c1ccncc1N(C)C(=O)c1cc(Cl)cc(Cl)c1` (stereo not shown) [Example 21, 3,5-Dichloro-N-methyl-N-(2-methyl-3,4,5,6-tetrahydro-2H-[1,4′]bipyridinyl-3′-yl)-benzamide hydrochloride salt] yielded a pEC50 of 6.41. For `Cc1ccccc1-c1ccncc1N(C)C(=O)c1cc(C(F)(F)F)cc(S(C)(=O)=O)c1` [Example 114, 3-Methanesulfonyl-N-methyl-N-(4-o-tolyl-pyridin-3-yl)-5-trifluoromethyl-benzamide], the pEC50 was 7.52. Work on `CN(C(=O)c1cc(C(F)(F)F)cc(C(F)(F)F)c1)c1cnccc1-c1c(F)cccc1F` [Example 64, N-[4-(2,6-Difluoro-phenyl)-pyridin-3-yl]-N-methyl-3,5-bis-trifluoromethyl-benzamide] yielded a pEC50 of 7.85. Work on `COC(=O)CN(C(=O)c1cc(C(F)(F)F)cc(S(C)(=O)=O)c1)c1cnccc1-c1cc(F)c(F)cc1OC` [Example 172, [[4-(4,5-Difluoro-2-methoxy-phenyl)-pyridin-3-yl]-(3-methanesulfonyl-5-trifluoromethyl-benzoyl)-amino]-acetic acid methyl ester] yielded a pEC50 of 6.20. In the case of `COc1ccccc1-c1ccncc1N(C)C(=O)c1cc(C(F)(F)F)cc(C(F)(F)F)c1` [Example 29, N-[4-(2-Methoxy-phenyl)-pyridin-3-yl]-N-methyl-3,5-bis-trifluoromethyl-benzamide], the pEC50 was 7.96. `COc1cc(F)ccc1-c1ccncc1N(C)C(=O)c1cc(C(F)(F)F)cc(S(=O)(=O)C2COC2)c1` [Example 255, N-[4-(4-Fluoro-2-methoxy-phenyl)-pyridin-3-yl]-N-methyl-3-(oxetane-3-sulfonyl)-5-trifluoromethyl-benzamide] gave a pEC50 of 7.28. `COc1cc(F)ccc1-c1cc(C)ncc1N(C)C(=O)c1cc(SCCCCC(=O)O)cc(C(F)(F)F)c1` [Example 312, 5-(3-{[4-(4-Fluoro-2-methoxy-phenyl)-6-methyl-pyridin-3-yl]-methyl-carbamoyl}-5-trifluoromethyl-phenylsulfanyl)-pentanoic acid] was tested, and the pEC50 was 5.62. `Cc1cccnc1-c1ccncc1N(C)C(=O)c1cc(C(F)(F)F)cc(C(F)(F)F)c1` [Example 57, N-Methyl-N-(3-methyl-[2,4′]bipyridinyl-3′-yl)-3,5-bis-trifluoromethyl-benzamide] was tested, and the pEC50 was 6.45. Work on `Cc1ccccc1-c1ccncc1N(C)C(=O)c1cc(Cl)nc(Cl)c1` [Example 120, 2,6-Dichloro-N-methyl-N-(4-o-tolyl-pyridin-3-yl)-isonicotinamide] yielded a pEC50 of 6.77. For `COc1ccc(C(=O)N(C)c2cnccc2-c2ccccc2C)cc1C(F)(F)F` [Example 92, 4-Methoxy-N-methyl-N-(4-o-tolyl-pyridin-3-yl)-3-trifluoromethyl-benzamide], the pEC50 was 6.63. `COc1cc(F)ccc1-c1ccncc1N(C)C(=O)c1cc(C(F)(F)F)cc(S(=O)(=O)N2CCS(=O)(=O)CC2)c1` [Example 304, 3-(1,1-Dioxo-thiomorpholine-4-sulfonyl)-N-[4-(4-fluoro-2-methoxy-phenyl)-pyridin-3-yl]-N-methyl-5-trifluoromethyl-benzamide] gave a pEC50 of 7.82. For `COc1cc(F)c(F)cc1-c1ccncc1N(CC(F)(F)F)C(=O)c1cc(C(F)(F)F)nc(C(F)(F)F)c1` [Example 146, N-[4-(4,5-Difluoro-2-methoxy-phenyl)-pyridin-3-yl]-N-(2,2,2-trifluoro-ethyl)-2,6-bis-trifluoromethyl-isonicotinamide], the pEC50 was 7.16. With `COCCN(C(=O)c1cc(C(F)(F)F)cc(S(C)(=O)=O)c1)c1cnccc1-c1c(F)cccc1OC` [Example 229, N-[4-(2-Fluoro-6-methoxy-phenyl)-pyridin-3-yl]-3-methanesulfonyl-N-(2-methoxy-ethyl)-5-trifluoromethyl-benzamide] the pEC50 was 7.57. `COc1cc(F)ccc1-c1ccncc1N(C)C(=O)c1cc(C(F)(F)F)cc(S(=O)(=O)CCO)c1` [Example 218, N-[4-(4-Fluoro-2-methoxy-phenyl)-pyridin-3-yl]-3-(2-hydroxy-ethanesulfonyl)-N-methyl-5-trifluoromethyl-benzamide] was tested, and the pEC50 was 7.14. `COc1cc(F)ccc1-c1ccncc1N(Cc1ncc(C)o1)C(=O)c1cc(C(F)(F)F)cc(S(C)(=O)=O)c1` [Example 283, N-[4-(4-Fluoro-2-methoxy-phenyl)-pyridin-3-yl]-3-methanesulfonyl-N-(5-methyl-oxazol-2-ylmethyl)-5-trifluoromethyl-benzamide] showed a pEC50 of 5.66. `Cc1c(F)cccc1-c1ccncc1N(C)C(=O)c1cc(C(F)(F)F)cc(S(C)(=O)=O)c1` [Example 295, N-[4-(3-Fluoro-2-methyl-phenyl)-pyridin-3-yl]-3-methanesulfonyl-N-methyl-5-trifluoromethyl-benzamide] gave a pEC50 of 6.35.
